Where two headings read alike, the source gives them in different places.

For orientation: Cmax means the peak of the concentration-time curve. The Tmax is the time from dosing to the highest level.

The nature of data set [1]: Pharmacokinetic study in rats after oral administration of mix standard solution (UPLC-QqQ-MS of plasma). The class given is in vivo, Sprague-Dawley rats. How it is done:
Then, 300 μL acetonitrile for protein precipitation were added. For the incurred samples, 10 µL of methanol (volume of the corresponding standard solution for calibration curve) and 90 μL of samples with 300 μL acetonitrile were mixed, the mixture was then vortex-extracted for 2 min, and centrifuged for 10 min at 15,000 rpm (4 °C). The supernatant was transferred to a new tube and evaporated under a gentle stream of nitrogen to dryness. The residue was reconstituted with 80 μL of initial mobile phase, vortex-mixed for 1 min and centrifuged at 15,000 rpm for 5 min.
The Chromatographic UPLC-QqQ-MS procedure of pharmacokinetics study was performed using ACQUITY UPLC (Waters, Milford, MA, USA) and SCIEX SelexION Triple Quad™ 5500 System (AB Sciex, Framingham, MA, USA) equipped with a heated electrospray ionization source (ESI) interface, separation was achieved using a Waters BEH C18 column (2.1 mm × 100 mm, 1.7 μm) which was protected by an online filter, the mobile phase was at a flow rate of 0.5 mL/min, consisted of aqueous solvent A: water–acetic acid (1000:1, v/v) and organic phase solvent B: acetonitrile. A 10-min binary gradient elution was performed for the separation, and the consecutive program was as follows: an isocratic elution of 5% solvent B to equilibrate the column, then followed by a linear gradient elution: 0–2.5 min, 5–27% B; 2.5–3.1 min, 27–36% B; 3.1–4.1 min, 36–57% B; 4.1–4.8 min, 57–84% B; 4.8–5.8 min, 84–100% B; 5.8–7 min, 100–100% B; 7–8 min, 100–5% B; and the re-equilibration time of gradient elution was 2 min. The column and auto-sampler tray temperature were maintained constantly at 45 °C and 4 °C, respectively. The injection volume was 10 μL. The electrospray ionization source was operated in positive mode. Quantitation was performed by schedule multiple reactions monitoring (sMRM). In the positive mode, the tandem mass spectrometry (MS/MS) typical instrumental conditions were: ion spray voltage 5.5 kV, ion source gas 150 psi, ion source gas 250 psi, temperature 500 °C, and curtain gas 38 psi. Data acquisition and processing were performed using Analyst Software (AB Sciex, Corp., Framingham, MA, USA).
The developed UPLC-QqQ-MS method was applied to a pharmacokinetic study of seven analytes in rat plasma. Male healthy adult Sprague-Dawley rats (n = 6, 200 ± 20 g body weight) were supplied by Shanghai Jiao Tong University Laboratory Animal Centre (Shanghai, China). Animals were acclimatized in an environmental controlled breeding room with standard laboratory food and water for one week prior to the experiments. All the rats were fasted for 12 h, with free access to water prior to the experiments, animal welfare and experimental procedures conformed to guidance for the care and use of laboratory animals, similarly the ethical regulations of SJTU.
Then immediately centrifuged at 4000 rpm for 5 minutes, plasma was transferred into another via and stored at −80 °C until assay.
The plasma concentrations of seven analytes at different time points are described as the mean ± s.d. The concentration versus time curve was plotted. Compartmental model was chosen to calculate all the related pharmacokinetic parameters including Cmax (ng/mL), Tmax (h), AUC0−∞ (ng·h/mL), CL/F (L/h.kg), T1/2α (h) and T1/2β (h) were calculated by Kinetica4.4 software (Thermo Fisher Scientific™, Corp., Waltham, MA, USA), and performed with GraphPad 6 (GraphPad Software, Inc., La Jolla, CA, USA). We also use the area under the plasma concentration–time curve from zero to infinity (AUC0−∞) as the weighting factor to make an integrated pharmacokinetic curve. […]

Data set [2] can be described thus: Stability of the seven analytes in rat plasma (method validation). It counts as in vitro ADME. Conditions: n = 6; for Short-Term RSD: auto-sampler vials for 24 h; for Freeze-Thaw RSD: three freeze–thaw cycles; for Long-Term RSD: −20 °C for 30 days. The protocol: Stability The short-term and long-term stability of seven analytes in rat plasma in auto-sampler vials for 24 h, at −20 °C for 30 days and after three freeze–thaw cycles was assessed, and also carried out in six replicates samples at three QC levels (low, medium and high).
Stability: The analytes would be considered stable when the accuracy bias was within ±15% of the nominal concentrations (or ±20% for LLOQ).

The conditions of data set [3]: cited from earlier work.
Where [4] appears, read: male, Sprague-Dawley, rat, in vivo, po, 10 mg/kg.
[5] abbreviates: high QC level (80.0 or 150 ng/mL).
Setting [6] is: low QC level (0.25, 0.50 or 1.50 ng/mL).
[7] abbreviates: medium QC level (1.50, 3.50 or 15.0 ng/mL).
The mark [8] stands for this setting: after oral administration (10 mg/kg).
Setting [9] is: male, Sprague-Dawley, rat, in vivo, po, 10 mg/kg, rats, oral 10 mg/kg mix standard in 0.5% CMC-Na, n = 6, Mean ± S.D., read-out: Tmax.
Where [10] appears, read: male, Sprague-Dawley, rat, in vivo, Table 8, mean, after oral administration (10 mg/kg), read-out: AUC0−∞.
The mark [11] stands for this setting: male, Sprague-Dawley, rat, in vivo, rats, oral 10 mg/kg mix standard in 0.5% CMC-Na, n = 6, Mean ± S.D., compartmental model, read-out: Cmax.
[12] abbreviates: male, Sprague-Dawley, rat, in vivo, rats, oral 10 mg/kg mix standard in 0.5% CMC-Na, n = 6, Mean ± S.D., read-out: CL/F (converted).
The mark [13] stands for this setting: male, Sprague-Dawley, rat, in vivo, rats, oral 10 mg/kg mix standard in 0.5% CMC-Na, n = 6, Mean ± S.D., read-out: T1/2β (converted).
Where [14] appears, read: rats, oral 10 mg/kg mix standard in 0.5% CMC-Na, n = 6, Mean ± S.D., 10 mg/kg.

For `COc1c2c(cc3oc(C)cc(=O)c13)OC(C(C)(C)OC1OC(CO)C(O)C(O)C1O)C2` [4-O-beta-D-glucosyl-5-O-methylvisamminol], in data set [1] (setting [4]), the AUC(0-inf) worked out at 60.8 ng·h/mL, the CL/F was 2810 mL/min/kg, the Cmax came to 50 ± 7.6 ng/mL and the T1/2α is reported as 0.16 ± 0.01 h. Further, in data set [1] (setting [4]), the Tmax was determined as 12 ± 0.6 min, the half-life is 144 ± 66 min and the “weighting coefficient ωj (AUC0−∞ of single analyte / total AUC0−∞ of analytes)” value is listed as 0.085. Moreover, in data set [2] (setting [5]), the “Short-Term RSD” value amounted to 1.02%, the “Freeze-Thaw RSD” value amounted to 8.53% and the “Long-Term RSD” value is reported as 2.41%. For the same compound, in data set [2] (setting [6]), the “Short-Term RSD” value was 3.89%, the “Freeze-Thaw RSD” value is reported as 2.40% and the “Long-Term RSD” value was determined as 3.99%. Moreover, in data set [2] (setting [7]), the “Short-Term RSD” value came to 1.35%, the “Freeze-Thaw RSD” value is 1.40% and the “Long-Term RSD” value is reported as 7.52%.
In the case of `CC(C)(O)C1CCC(C)(C2C(O)CC3(C)C4CC(OC5OC(CO)C(O)C(O)C5O)C5C(C)(C)C(OC6OCC(O)C(O)C6O)CCC56CC46CCC23C)O1` (stereo not shown) [Astragaloside], the “weighting coefficient ωj (AUC0−∞ of single analyte / total AUC0−∞ of analytes)” value in data set [1] (setting [8]) was 0.269. Further, in data set [1] (setting [9]), the Tmax was 168 ± 6 min. Besides, the AUC(0-inf) in data set [1] (setting [10]) was found to be 191 ng·h/mL. Moreover, the Cmax in data set [1] (setting [11]) was found to be 26.6 ± 4 ng/mL. Besides, the CL/F in data set [1] (setting [12]) was 832 mL/min/kg. The half-life in data set [1] (setting [13]) is 124 ± 2.4 min. The same compound showed a T1/2α in data set [1] (rats, oral 10 mg/kg mix standard in 0.5% CMC-Na, n = 6, Mean ± S.D.) of 1.98 ± 0.11 h. For the same compound, in data set [2] (setting [5]), the “Short-Term RSD” value is recorded as 1.45%, the “Freeze-Thaw RSD” value is 11.51% and the “Long-Term RSD” value is 2.80%. Moreover, in data set [2] (setting [6]), the “Short-Term RSD” value is 7.06%, the “Freeze-Thaw RSD” value came out at 3.65% and the “Long-Term RSD” value is listed as 3.36%. Moreover, in data set [2] (setting [7]), the “Short-Term RSD” value came out at 1.06%, the “Freeze-Thaw RSD” value amounted to 3.20% and the “Long-Term RSD” value is 8.08%. In addition, in data set [3] (stated as a known characteristic, no reference given), the bioavailability result was “low”.
In data set [1] (setting [4]), `C=C1CCC[C@]2(C)C[C@@H]3OC(=O)C(C)=C3C[C@@H]12` [Atractylenolide II] showed an AUC(0-inf) of 17.9 ng·h/mL, a CL/F of 9820 mL/min/kg, a Cmax of 8.4 ± 2.4 ng/mL and a T1/2α of 0.04 ± 0.01 h. In data set [1] (setting [4]), the Tmax amounted to 6 ± 6 min, the half-life was 246 ± 93.6 min and the “weighting coefficient ωj (AUC0−∞ of single analyte / total AUC0−∞ of analytes)” value amounted to 0.025. In addition, in data set [3], the biliary excretion result is “rapid” and the intestinal absorption entry is “poor”.
In data set [1] (setting [4]), `COc1ccc(-c2coc3cc(O)ccc3c2=O)cc1O` [Calycosin] showed an AUC(0-inf) of 11.5 ng·h/mL, a CL/F of 8330 mL/min/kg, a Cmax of 6.3 ± 2.5 ng/mL and a T1/2α of 0.27 ± 0.10 h. In data set [1] (setting [4]), the Tmax worked out at 18 ± 6 min, the half-life was 65.4 ± 21.6 min and the “weighting coefficient ωj (AUC0−∞ of single analyte / total AUC0−∞ of analytes)” value amounted to 0.016. In addition, in data set [2] (setting [5]), the “Short-Term RSD” value is 4.38%, the “Freeze-Thaw RSD” value came to 12.92% and the “Long-Term RSD” value was determined as 12.67%. In data set [2] (setting [6]), the “Short-Term RSD” value is recorded as 4.18%, the “Freeze-Thaw RSD” value amounted to 8.29% and the “Long-Term RSD” value is recorded as 4.13%. In data set [2] (setting [7]), the “Short-Term RSD” value was found to be 2.20%, the “Freeze-Thaw RSD” value worked out at 6.08% and the “Long-Term RSD” value stood at 10.35%.
As to `COc1ccc(-c2coc3cc(O)ccc3c2=O)cc1` [Formononetin], the “weighting coefficient ωj (AUC0−∞ of single analyte / total AUC0−∞ of analytes)” value in data set [1] (setting [8]) came out at 0.159. Besides, the results for the Tmax in data set [1] (setting [9]) and in data set [1] (setting [14]) were 99 min and 96 ± 54 min, respectively. The AUC(0-inf) in data set [1] (setting [10]) is 113 ng·h/mL. In addition, the Cmax in data set [1] (setting [11]) came out at 13.9 ± 4.2 ng/mL. In addition, the CL/F in data set [1] (setting [12]) was 1530 mL/min/kg. Moreover, the half-life in data set [1] (setting [13]) was 246 ± 156 min. Besides, the T1/2α is given as 1.77 ± 0.81 h in data set [1] (setting [14]) and 1.77 h in data set [1] (rats, oral 10 mg/kg mix standard in 0.5% CMC-Na, n = 6, Mean ± S.D., listed as formononetin, 10 mg/kg). In addition, the “Short-Term RSD” value in data set [2] (setting [5]) is 2.82%; in data set [2] (setting [6]), 2.35%; in data set [2] (setting [7]), 2.33%. For the same compound, the “Freeze-Thaw RSD” value in data set [2] (setting [5]) is given as 10.58%; in data set [2] (setting [6]), 10.06%; in data set [2] (setting [7]) it was 7.09%. The “Long-Term RSD” value in data set [2] (setting [5]) amounted to 6.22%; in data set [2] (setting [6]), 5.96%; in data set [2] (setting [7]), 7.75%.
Turning to `Cc1cc(=O)c2c(O)c3c(cc2o1)OC(C)(C)[C@@H](O[C@@H]1O[C@H](CO)[C@@H](O)[C@H](O)[C@H]1O)C3` [Sec-O-Glucosylhamaudol], in data set [1] (rat, in vivo, po, 10 mg/kg), the T1/2α was found to be 1.10 ± 0.26 h, the T1/2β came to 2.4 ± 1.2 min and the “weighting coefficient ωj (AUC0−∞ of single analyte / total AUC0−∞ of analytes)” value was found to be 0.379. Besides, in data set [2] (setting [5]), the “Short-Term RSD” value amounted to 1.01%, the “Freeze-Thaw RSD” value came to 9.64% and the “Long-Term RSD” value came out at 1.46%. Besides, in data set [2] (setting [6]), the “Short-Term RSD” value was determined as 2.75%, the “Freeze-Thaw RSD” value is 4.77% and the “Long-Term RSD” value stood at 3.70%. Moreover, in data set [2] (setting [7]), the “Short-Term RSD” value stood at 1.40%, the “Freeze-Thaw RSD” value came to 3.73% and the “Long-Term RSD” value is 3.11%.

These data come from article PMC6154636, “Using UPLC-MS/MS for Characterization of Active Components in Extracts of Yupingfeng and Application to a Comparative Pharmacokinetic Study in Rat Plasma after Oral Administration” (Molecules : A Journal of Synthetic Chemistry and Natural …, 2017).
